Like-named read-outs stand apart in the source and are kept apart here. Ends that are not written are not given here.
How the values were obtained:
[1] = human, in vivo
Procedure: A patient with chronic active Epstein-Barr virus disease and hemophagocytic lymphohistiocytosis presented with ceftriaxone-induced hemolytic anemia. The patient had been evaluated in the emergency department for fever and possible sepsis after recently receiving chemotherapy. In the emergency department they received a dose of ceftriaxone (50 mg/kg). The patient had received ceftriaxone on three previous occasions with no history of adverse reaction. Within an hour they developed back pain, tachycardia and tachypnea. Over the next three hours they developed worsening distress, failed continuous positive airway pressure and required endotracheal intubation with mechanical ventilation. They also experienced hypotension requiring fluid resuscitation and a continuous epinephrine infusion.
Four hours later, their hemoglobin had decreased to 6.1 g/dL, followed by a point-of-care hemoglobin of 5.1 g/dL. They received four packed red blood cell transfusions (each 10 mL/kg) within 72 hours, after which, their hemoglobin stabilized at their initial baseline (FIG. 1A). […] There were spherocytes on their peripheral blood smear as well as red blood cell aggregation. On admission, one day later, and five days later, their total bilirubin level was 1.5 mg/dL, 10.7 mg/dL, and 23.1 mg/dL respectively, with 90% being conjugated. […]

[2] = patients frequently exposed to ceftriaxone; cited from earlier work
[3] = PIC1 administered to a patient with ceftriaxone-induced hemolysis (Example 2); format: in vivo, human
Procedure: A patient is tested for possible hemolysis as a result of treatment with ceftriaxone. The patient has an erythrocyte hemoglobin level of 6.5 g/dL, a total bilirubin level of 12.4 mg/dL, and an LDH of 16,500. The patient receives packed red blood cell transfusion, and ceftriaxone is discontinued.
Four hours later, the patient has an erythrocyte hemoglobin level of 7.9 g/dL, a total bilirubin level of 8.4 mg/dL, and an LDH of 10,500, all of which show improvement. […] The bilirubin and LDH levels continue to improve. The patient receives additional packed red blood cell transfusions as needed.

[4] = tested on: classical complement pathway; conditions: 0.75 mM PIC1 and ceftriaxone together

total bilirubin level [1] [mg/dL] | Molecule | patients developing anti-ceftriaxone antibodies [2] [%] | clinical outcome ([3]; 150 mg/kg PIC1, then daily dose for three days, with transfusions as needed) | total bilirubin level ([3]; four hours after 150 mg/kg PIC1, 12.4 mg/dL before) [mg/dL] | erythrocyte hemoglobin level ([3]; four hours after 150 mg/kg PIC1, 6.5 g/dL before) [g/dL] | LDH ([3]; four hours after 150 mg/kg PIC1, 16,500 before) | hemolysis relative to the no ceftriaxone control [4]
23.1 | CO/N=C(\C(=O)N[C@@H]1C(=O)N2C(C(=O)O)=C(CSc3nc(=O)c(=O)[nH]n3C)CS[C@H]12)c1csc(N)n1 [ceftriaxone, reference compound] | 12.5 | – | – | – | – | –
– | IALILEPICCQERAA-dPEG24 (cysteine pairing not given here) [PIC1] | – | completely recovered from the hemolysis | 8.4 | 7.9 | 10,500 | returned hemolysis to the level of the no ceftriaxone control

Reference: US20210228695A1 (REALTA HOLDINGS, LLC, priority 2018, published 2021)
